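Cultured in 96-well plates, cells were exposed to test compound for 48 hours across five concentrations. GI50 is the concentration that inhibits growth by half.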 Activity calls are given as the source filed them. Rule as the data show it: active = GI50 up to about 1.1 µM and inactive = higher.
What was measured:
Assay in all cases: NCI tumour cell line growth inhibition, 48 h
786-0 = tested on: 786-0
A498 = tested on: A498
A549 = tested on: A549
ACHN = tested on: ACHN
CCRF-CEM = tested on: CCRF-CEM
COLO 205 = tested on: COLO 205
DLD-1 = tested on: DLD-1
DMS-114 = tested on: DMS-114
DMS-273 = tested on: DMS-273
EKVX = tested on: EKVX
HCC 2998 = tested on: HCC 2998
HCT-116 = tested on: HCT-116
HCT-15 = tested on: HCT-15
HL-60 = tested on: HL-60
HOP-18 = tested on: HOP-18
HOP-62 = tested on: HOP-62
HOP-92 = tested on: HOP-92
HT-29 = tested on: HT-29
IGROV-1 = tested on: IGROV-1
KM-20L2 = tested on: KM-20L2
KM12 = tested on: KM12
LOX IMVI = tested on: LOX IMVI
LXFL 529 = tested on: LXFL 529
M14 = tested on: M14
M19-MEL = tested on: M19-MEL
Malme-3M = tested on: Malme-3M
NCI-H226 = tested on: NCI-H226
NCI-H23 = tested on: NCI-H23
NCI-H460 = tested on: NCI-H460
NCI-H522 = tested on: NCI-H522
OVCAR-3 = tested on: OVCAR-3
OVCAR-4 = tested on: OVCAR-4
OVCAR-5 = tested on: OVCAR-5
OVCAR-8 = tested on: OVCAR-8
RXF 393 = tested on: RXF 393
RXF 631 = tested on: RXF 631
SF-268 = tested on: SF-268
SF-295 = tested on: SF-295
SF-539 = tested on: SF-539
SK-MEL-28 = tested on: SK-MEL-28
SK-MEL-2 = tested on: SK-MEL-2
SK-MEL-5 = tested on: SK-MEL-5
SK-OV-3 = tested on: SK-OV-3
SN12C = tested on: SN12C
SNB-19 = tested on: SNB-19
SNB-75 = tested on: SNB-75
SNB-78 = tested on: SNB-78
SW-620 = tested on: SW-620
TK-10 = tested on: TK-10
U-251 = tested on: U-251
UACC-257 = tested on: UACC-257
UACC-62 = tested on: UACC-62
UO-31 = tested on: UO-31
XF498 = tested on: XF498
CAKI-1 = tested on: CAKI-1
K562 = tested on: K562
MOLT-4 = tested on: MOLT-4
RPMI-8226 = tested on: RPMI-8226

CCCCCCCCCCCCCCNCC(OC)OC
GI50 (786-0): 16 µM (inactive)
GI50 (A498): 19.8 µM (inactive)
GI50 (A549): 19.5 µM (inactive)
GI50 (ACHN): 16.2 µM (inactive)
GI50 (CCRF-CEM): 9.18 µM (inactive)
GI50 (COLO 205): 14.4 µM (inactive)
GI50 (DLD-1): 14.6 µM (inactive)
GI50 (DMS-114): 14 µM (inactive)
GI50 (DMS-273): 17.5 µM (inactive)
GI50 (EKVX): 18.2 µM (inactive)
GI50 (HCC 2998): 18.6 µM (inactive)
GI50 (HCT-116): 13.1 µM (inactive)
GI50 (HCT-15): 11.8 µM
GI50 (HL-60): 5.25 µM (inactive)
GI50 (HOP-18): 13.3 µM (inactive)
GI50 (HOP-62): 16.7 µM (inactive)
GI50 (HOP-92): 10.2 µM (inactive)
GI50 (HT-29): 3.78 µM (inactive)
GI50 (IGROV-1): 17 µM (inactive)
GI50 (KM-20L2): 14.4 µM (inactive)
GI50 (KM12): 13.3 µM (inactive)
GI50 (LOX IMVI): 16.4 µM (inactive)
GI50 (LXFL 529): 16.3 µM (inactive)
GI50 (M14): 14.1 µM (inactive)
GI50 (M19-MEL): 18.1 µM (inactive)
GI50 (Malme-3M): 19.8 µM (inactive)
GI50 (NCI-H226): 17.1 µM (inactive)
GI50 (NCI-H23): 20.2 µM (inactive)
GI50 (NCI-H460): 17.8 µM (inactive)
GI50 (NCI-H522): 16.9 µM (inactive)
GI50 (OVCAR-3): 17.3 µM (inactive)
GI50 (OVCAR-4): 15.1 µM (inactive)
GI50 (OVCAR-5): 14.6 µM (inactive)
GI50 (OVCAR-8): 20.1 µM (inactive)
GI50 (RXF 393): 14.7 µM (inactive)
GI50 (RXF 631): 15.2 µM (inactive)
GI50 (SF-268): 18.5 µM (inactive)
GI50 (SF-295): 19.7 µM (inactive)
GI50 (SF-539): 16.9 µM (inactive)
GI50 (SK-MEL-28): 16.5 µM (inactive)
GI50 (SK-MEL-2): 16.4 µM (inactive)
GI50 (SK-MEL-5): 15.2 µM (inactive)
GI50 (SK-OV-3): 18.7 µM (inactive)
GI50 (SN12C): 15.1 µM (inactive)
GI50 (SNB-19): 17.9 µM (inactive)
GI50 (SNB-75): 13.8 µM (inactive)
GI50 (SNB-78): 17.4 µM (inactive)
GI50 (SW-620): 16.1 µM (inactive)
GI50 (TK-10): 17.4 µM (inactive)
GI50 (U-251): 16.3 µM (inactive)
GI50 (UACC-257): 19.4 µM (inactive)
GI50 (UACC-62): 19.6 µM (inactive)
GI50 (UO-31): 12.8 µM (inactive)
GI50 (XF498): 16.7 µM (inactive)

CC(C)(C)C1(c2ccc(C3(c4ccccc4)Oc4ccccc4S3)[nH]2)Oc2ccccc2S1 (centres undefined)
GI50 (A549): > 100 µM (inactive)
GI50 (ACHN): > 100 µM (inactive)
GI50 (CAKI-1): > 100 µM (inactive)
GI50 (CCRF-CEM): > 100 µM (inactive)
GI50 (DLD-1): > 100 µM (inactive)
GI50 (DMS-114): > 100 µM (inactive)
GI50 (DMS-273): > 100 µM (inactive)
GI50 (EKVX): > 100 µM (inactive)
GI50 (HCC 2998): > 100 µM (inactive)
GI50 (HCT-116): > 100 µM (inactive)
GI50 (HCT-15): > 100 µM
GI50 (HL-60): > 100 µM (inactive)
GI50 (HOP-18): > 100 µM (inactive)
GI50 (HOP-62): > 100 µM (inactive)
GI50 (HOP-92): 26.8 µM (inactive)
GI50 (HT-29): > 100 µM (inactive)
GI50 (IGROV-1): > 100 µM (inactive)
GI50 (K562): > 100 µM (inactive)
GI50 (KM-20L2): > 100 µM (inactive)
GI50 (LOX IMVI): > 100 µM (inactive)
GI50 (LXFL 529): > 100 µM (inactive)
GI50 (M14): > 100 µM (inactive)
GI50 (M19-MEL): > 100 µM (inactive)
GI50 (MOLT-4): 65.5 µM (inactive)
GI50 (Malme-3M): > 100 µM (inactive)
GI50 (NCI-H226): 55 µM (inactive)
GI50 (NCI-H23): > 100 µM (inactive)
GI50 (NCI-H460): > 100 µM (inactive)
GI50 (NCI-H522): > 100 µM (inactive)
GI50 (OVCAR-3): > 100 µM (inactive)
GI50 (OVCAR-5): > 100 µM (inactive)
GI50 (OVCAR-8): > 100 µM (inactive)
GI50 (RPMI-8226): 96.2 µM (inactive)
GI50 (RXF 393): > 100 µM (inactive)
GI50 (RXF 631): > 100 µM (inactive)
GI50 (SF-268): > 100 µM (inactive)
GI50 (SF-295): > 100 µM (inactive)
GI50 (SF-539): > 100 µM (inactive)
GI50 (SK-MEL-2): > 100 µM (inactive)
GI50 (SK-MEL-5): > 100 µM (inactive)
GI50 (SK-OV-3): > 100 µM (inactive)
GI50 (SN12C): > 100 µM (inactive)
GI50 (SNB-19): > 100 µM (inactive)
GI50 (SNB-78): > 100 µM (inactive)
GI50 (SW-620): > 100 µM (inactive)
GI50 (TK-10): > 100 µM (inactive)
GI50 (U-251): > 100 µM (inactive)
GI50 (UACC-257): 92.9 µM (inactive)
GI50 (UACC-62): > 100 µM (inactive)
GI50 (UO-31): 90.4 µM (inactive)
GI50 (XF498): 32.5 µM (inactive)

COC(=O)c1sc(C(=O)OC)c2c1C[S+]([O-])C2
GI50 (786-0): > 100 µM (inactive)
GI50 (A498): > 100 µM (inactive)
GI50 (A549): > 100 µM (inactive)
GI50 (CAKI-1): > 100 µM (inactive)
GI50 (CCRF-CEM): > 100 µM (inactive)
GI50 (COLO 205): > 100 µM (inactive)
GI50 (DLD-1): > 100 µM (inactive)
GI50 (DMS-114): > 100 µM (inactive)
GI50 (DMS-273): > 100 µM (inactive)
GI50 (EKVX): > 100 µM (inactive)
GI50 (HCC 2998): > 100 µM (inactive)
GI50 (HCT-116): > 100 µM (inactive)
GI50 (HCT-15): > 100 µM
GI50 (HL-60): > 100 µM (inactive)
GI50 (HOP-18): > 100 µM (inactive)
GI50 (HOP-92): > 100 µM (inactive)
GI50 (HT-29): > 100 µM (inactive)
GI50 (IGROV-1): > 100 µM (inactive)
GI50 (K562): > 100 µM (inactive)
GI50 (KM-20L2): > 100 µM (inactive)
GI50 (KM12): > 100 µM (inactive)
GI50 (LOX IMVI): > 100 µM (inactive)
GI50 (LXFL 529): > 100 µM (inactive)
GI50 (M14): > 100 µM (inactive)
GI50 (M19-MEL): > 100 µM (inactive)
GI50 (MOLT-4): > 100 µM (inactive)
GI50 (Malme-3M): > 100 µM (inactive)
GI50 (NCI-H226): > 100 µM (inactive)
GI50 (NCI-H23): > 100 µM (inactive)
GI50 (NCI-H522): > 100 µM (inactive)
GI50 (OVCAR-3): > 100 µM (inactive)
GI50 (OVCAR-4): > 100 µM (inactive)
GI50 (OVCAR-5): > 100 µM (inactive)
GI50 (OVCAR-8): > 100 µM (inactive)
GI50 (RPMI-8226): > 100 µM (inactive)
GI50 (RXF 393): > 100 µM (inactive)
GI50 (RXF 631): > 100 µM (inactive)
GI50 (SF-268): > 100 µM (inactive)
GI50 (SF-295): > 100 µM (inactive)
GI50 (SF-539): > 100 µM (inactive)
GI50 (SK-MEL-28): > 100 µM (inactive)
GI50 (SK-MEL-2): > 100 µM (inactive)
GI50 (SK-MEL-5): > 100 µM (inactive)
GI50 (SK-OV-3): > 100 µM (inactive)
GI50 (SNB-19): > 100 µM (inactive)
GI50 (SNB-75): > 100 µM (inactive)
GI50 (SNB-78): > 100 µM (inactive)
GI50 (SW-620): > 100 µM (inactive)
GI50 (TK-10): > 100 µM (inactive)
GI50 (U-251): > 100 µM (inactive)
GI50 (UACC-257): > 100 µM (inactive)
GI50 (UACC-62): > 100 µM (inactive)
GI50 (UO-31): > 100 µM (inactive)
GI50 (XF498): 38.7 µM (inactive)

From ChEMBL document CHEMBL1201862, “PubChem BioAssay data set” (2004)
